Data: patent US8778971B2, “Medicinal treatment of dermal diseases in companion animals” (Bridge Pharma, Inc., priority 2012, dated 2014)
pIC50: −log10 of the molar value. Marks after values point to notes of the source that are not given here.

Key:
histamine H1-receptors = histamine H1-receptors (Homo sapiens, UniProt P35367); experiment: H1 receptor binding, [3H]pyrilamine ligand; details: human recombinant receptors, read-out: H-1/IC50
Procedure: H1 receptor binding studies were conducted utilizing human recombinant receptors. In the studies shown herein, affinities of the test compounds for histamine H1-receptors were assessed using a binding assay, where [^3H]pyrilamine was used as the ligand and the test compounds were used at increasing concentrations. The specific binding of the radioactive ligand to the receptor was defined as the difference between total binding and nonspecific binding, determined in the presence of excess unlabeled ligand.

[1] = test system: histamine-induced wheal response; experiment: Antihistaminic activity in vivo, intradermal histamine wheal; parameters: species or system rats; details: rat; for Histamine wheal area: 60 min before histamine; for Saline wheal area: histamine vehicle injection; for Histamine effect: histamine minus saline
Procedure: Male rats (150-200 g) were fasted overnight and twelve hours after dorsal depilation, the animals were orally pretreated with the test compound(s). Four dorsal test areas were marked with permanent ink, carefully avoiding the area closest to the spine. […] Two intradermal injections of the vehicle for the histamine solution were also performed. […] Twenty minutes were allowed for the wheal response to fully develop, whereupon the animals were euthanized and the dorsal skin with the intradermal wheals were deflected. The blue spotted areas were measured in square millimeters and the duplicate wheal areas were averaged. […] The inhibition was calculated in percent difference from said baseline values.

[2] = test system: human leukocytes (buffy coat); experiment: Inhibition of A23187-stimulated histamine release from leukocytes; assay type: cell-based; details: for pIC50: Homo sapiens, Leukocyte, 20 min, A23187 5 μM, 20 min/37° C., read-out: Inhibition of inflammatory mediator (histamine) release, IC50
Procedure: In these studies, histamine was the marker compound for inflammatory mediators that are released from mast cells and other pro-inflammatory cells in patients with atopic inflammatory diseases. The inhibition of stimulated histamine release from human leukocytes (buffy coat) by test articles was studied. Leukocytes were obtained from healthy volunteers and histamine release was induced by incubation (20 min/37° C.) with the calcium ionophore A23187 (5 μM) in the presence or absence of a test article. Histamine was analyzed by enzyme-immune assays, using commercially available kits and a microplate reader (MRX, Dynatech). The test articles were evaluated, in duplicate, at five concentrations.

croton oil-treated ears [3] = experiment: Croton oil ear inflammation, systemic (ip) administration; assay type: in vivo; details: mice, 10 mg/kg ip
Procedure: In order to investigate the effects of systemic administration of the test compounds in dermal inflammation, a croton oil model was used as is known in the art. This test consists of topical application of 20 μl of 1.0% croton oil to each ear of male mice, weighing 28-32 g. […] Application of the croton oil results in an inflammatory response. The weight of croton oil-treated ears was determined and the percent increase in ear weight is calculated. Test articles were dosed systemically (ip). […] All results represent mean ear weights (±S.E.M.) from 10 ears.

mice = experiment: Sedative effects in mice, physostigmine lethality test; details: for Sedated animals: mice
Procedure: In short, physostigmine (1.0 mg/kg to 2.0 mg/kg, s.c.) generally results in 100% lethality when given to groups of mice (10 mice/group) transferred into a small volume of space. Mice administered a sedating drug prior to the physostigmine injection are protected from the stress and survive. In the present study, test compounds were given orally 60 minutes prior to physostigmine injection. The number of surviving (sedated) mice was counted 30 minutes after injection of the physostigmine dose.

dogs = experiment: Sedative effects in dogs, cross-over oral dosing; assay type: in vivo; details: for Frequency of sedation: 20 mg/kg/day oral; for Sedation in dogs (in words): oral
Procedure: Sedation studies in dogs were performed according to a cross-over protocol, where the dogs were administered once daily the test articles orally at a dose of 20 mg/kg bodyweight that in a previous toxicology study was marginally toxic in dogs with equal plasma concentrations of R-norketotifen and S-norketotifen.
The test articles were administered in gelatin capsules and vehicle-capsules were empty. All dogs were healthy beagles (four males and two females), age 24-36 months, weighing 7.8-10.6 kg. The dogs were dosed at 9-10 AM and had been fasted overnight before dosing. There was a washout period of at least three days in all dogs between the tests. All assessments of sedation/sleepiness were made by a qualified (D.V.M.) scientist with extensive experience (>15 years) in studies with conscious laboratory dogs. The test articles were in the form of hydrogen fumarate salts.
It had previously been observed that dogs rarely express sedation in response to oral administration of benzocycloheptathiophene compounds on the first day of dosing and the dogs were therefore administered the test articles for three consecutive days.

rats = experiment: Acute toxicity, Up-and-Down Procedure; assay type: in vivo; details: RAT, hydrogen fumarate salts
Procedure: Acute toxicological studies were performed in rats (Sprague-Dawley; M and F; 200-250 grams). The animal-sparing Up-and-Down Procedure (FDA, OECD) was used. Both oral and intravenous toxicity tests were performed.
Both compounds were administered as hydrogen fumarate salts.

croton oil-treated ears [4] = experiment: Modified croton oil ear inflammation, topical cream; assay type: in vivo; details: mice, 1.0% cream topical
Procedure: In order to investigate the effects of topical administration of the test compounds in dermal inflammation, a modified croton oil model was used. […] The cream was then removed and a solution of 1% croton oil in 20 μl acetone was applied to both ears. […] Cream was wiped from the ears and ears were removed and weighed. […] All results represent mean ear weights (±S.E.M.) from 8 ears.

[5] = test system: histamine-induced pruritus; experiment: Histamine-induced pruritus, topical cream; assay type: in vivo; details: mice, 1.0% cream topical 60 min before histamine
Procedure: Antipruritic effects were tested in vivo in CD-1 female mice aged 10-12 weeks, according to methods known in the art. The hair was clipped over the rostral part of the back at the interscapular level of the mice one day before dosing. Before testing, the mice were placed in individual clear plastic cages for at least one hour for acclimation. […] Lanolin was weighed and liquified by submerging the vessel containing lanolin in hot water. While the lanolin was liquid, it was rapidly nixed (by vortexing) with the 2.5% norketotifen solution in ethanol, resulting in a 1.0% solution. […] A cream containing 60% lanolin/40% ethanol served as control.

Candida albicans = experiment: Antimicrobial test, plate count; assay type: cell-based; details: 0.035% norketotifen, within 7 days, from 500,000
Procedure: (§1) Studies were performed to evaluate possible antimicrobial activities of norketotifen at various concentrations and various pHs. […]. The standard microbial solutions of norketotifen contained the following excipients: Sodium citrate (0.3%), propylene glycol (1.75%), methylparaben (0.03%), propylparaben (0.01%), sterile water (as diluent).
(§2) The microorganisms were inoculated into 50 mL centrifuge tubes containing 10 mL of test sample at T=0. One (1) mL was aliquoted from each centrifuge tube for each of the following 4 weeks (except at 21 days). The log reduction was determined by the plate count method after 7, 14 and 28 days by diluting in DEB (D/E neutralizing Broth) from 10^−1 to 10^−4 for bacteria. Bacterial plates were poured with SCDA (Soybean Casein Digest Agar) and incubated at 32.5±2.5° C. for 3-5 days

Staphylococcus aureus = experiment: Antimicrobial test, plate count; assay type: cell-based; details: 0.035% norketotifen, within 7 days, from 750,000
Procedure: as §1, §2

Malassezia pachydermatis = experiment: Antimicrobial test, Malassezia study; assay type: cell-based; details: after 24 hours
Procedure: The test article (norketotifen) was weighed and diluted into PBS to final concentrations of 0.210% and 0.035% before use. A 5 mL volume of the Test Article was aliquoted to a sterile 15 mL tube and the Malassezia sp (for example M. pachydermatis) were added at target concentrations of approx. 1.0×10^6 CFU/mL. The resulting mixture was vortexed thoroughly and incubated at room temperature for 7 days. A 0.500 mL aliquot of control and test tubes were harvested in 9.5 mL of D/E broth and any surviving test microorganisms were enumerated per standard dilution and plating techniques. Reductions were compared to a PBS Control at Time Zero and replicate tests were performed.

[6] = Solubility of norketotifen in non-aqueous solvents; assay type: physicochemical
Procedure: The hydrophobic ointment was prepared by dissolving norketotifen in propylene glycol. […] Next, glyceryl stearate, cetyl alcohol, and white petrolatum were added to a suitable container and heated to 65-70° C. This heating step melts the surfactants and the petrolatum. Next, norketotifen solution was slowly added and the composition mixed until the solvent was dispersed. Finally, the composition was cooled with mixing to allow the ointment to thicken.

[7] = oral 10 mg/kg, versus vehicle baseline

Sequence of histamine H1-receptors (P35367 whole entry): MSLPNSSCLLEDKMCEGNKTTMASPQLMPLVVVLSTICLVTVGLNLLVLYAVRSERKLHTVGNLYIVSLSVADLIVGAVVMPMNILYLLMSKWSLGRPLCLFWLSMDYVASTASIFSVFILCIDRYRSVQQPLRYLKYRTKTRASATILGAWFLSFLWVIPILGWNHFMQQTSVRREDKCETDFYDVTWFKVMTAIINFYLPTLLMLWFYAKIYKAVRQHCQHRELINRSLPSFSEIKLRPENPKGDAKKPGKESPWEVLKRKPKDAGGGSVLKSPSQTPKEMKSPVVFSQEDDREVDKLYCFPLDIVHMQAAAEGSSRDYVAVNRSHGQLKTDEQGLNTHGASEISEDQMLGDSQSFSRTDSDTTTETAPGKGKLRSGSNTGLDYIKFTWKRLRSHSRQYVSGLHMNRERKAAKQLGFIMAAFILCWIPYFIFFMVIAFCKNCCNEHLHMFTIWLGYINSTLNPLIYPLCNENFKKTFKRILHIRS

O=C1Cc2ccccc2C(=C2CCNCC2)c2ccsc21 (racemic) [Norketotifen, (RS)-4-(piperidylidene)-9,10-dihydro-4H-benzo-(4,5)-cyclohepta-(1,2-b) thiophene-10-one]
pIC50 (histamine H1-receptors): 7.96 | Histamine wheal area ([1]; oral 1.0 mg/kg): 114 ± 8 mm^2 | Saline wheal area ([1]; oral 1.0 mg/kg): 22 ± 1 mm^2 | Histamine effect ([1]; oral 1.0 mg/kg): 92 mm^2 | inhibition at 1 mg/kg ([1]; oral 1.0 mg/kg, versus vehicle baseline): 2% | Histamine wheal area ([1]; oral 10 mg/kg): 39 ± 2 mm^2 | Saline wheal area ([1]; oral 10 mg/kg): 22 ± 1 mm^2 | Histamine effect ([1]; oral 10 mg/kg): 17 mm^2 | inhibition at 10 mg/kg [1, 7]: 82% | Histamine wheal area ([1]; oral 50 mg/kg): 10 ± 1 mm^2 | Saline wheal area ([1]; oral 50 mg/kg): 12 ± 1 mm^2 | Histamine effect ([1]; oral 50 mg/kg): 0 mm^2 | inhibition at 50 mg/kg ([1]; oral 50 mg/kg, versus vehicle baseline): 100% | pIC50 [2]: 5.04 | Times more potent than ketotifen as inhibitor of histamine release ([2]; pro-inflammatory cells): approximately 10 times | Average Ear weight ±SEM (croton oil-treated ears [3]; 90 min): 34 ± 1 mg | Average Ear weight ±SEM (croton oil-treated ears [3]; 120 min): 40 ± 1 mg | Sedated animals (mice; oral dose 83 mg/kg): 3/10 | Sedated animals (mice; oral dose 100 mg/kg): 3/10 | Sedated animals (mice; oral dose 150 mg/kg): 3/10 | Sedated animals (mice; oral dose 180 mg/kg): 6/10 | Sedation in mice (in words) (mice; physostigmine lethality test): expressed sedative activity | Frequency of sedation (dogs; DAY 1): 0/6 | Frequency of sedation (dogs; DAY 2): 0/6 | Frequency of sedation (dogs; DAY 3): 0/6 | Sedation in dogs (in words) (dogs): did not cause sedation in dogs | Acute toxicity (estimated LD50) (rats; intravenous): 10 to 15 mg/kg | Acute toxicity (estimated LD50) (rats; oral): 1500 to 2000 mg/kg | Average Ear Weight ±S.E.M (croton oil-treated ears [4]; 0 (predose) min after croton oil): 36 ± 1 mg | Average Ear Weight ±S.E.M (croton oil-treated ears [4]; 30 min after croton oil): 36 ± 1 mg | Average Ear Weight ±S.E.M (croton oil-treated ears [4]; 60 min after croton oil): 37 ± 2 mg | Average Ear Weight ±S.E.M (croton oil-treated ears [4]; 90 min after croton oil): 36 ± 2 mg | Bouts as % of Vehicle Controls [5]: 42 ** % | Bouts/40 min [5]: 61 ± 4 | Bouts as % of Vehicle Controls ([5]; listed as RS-norketotifen): 42% | Candida albicans count after incubation (Candida albicans): 500 cells | Staphylococcus aureus count after incubation (Staphylococcus aureus): 90,000 | Reduction of Malassezia pachydermatis (Malassezia pachydermatis; 0.035% norketotifen): 99.8% | Reduction of Malassezia pachydermatis (Malassezia pachydermatis; 0.2% norketotifen): 99.995% | Solubility ([6]; formulation G1009, mixture of two polyethylene glycols): about 1.0% | Solubility ([6]; in propylene glycol): about 1.0%

Clc1ccc2c(c1)CCc1cccnc1C2=C1CCNCC1 [DESLORATADINE]
Sedated animals (mice; oral dose 150 mg/kg): 0/10

CN1CCC(=C2c3ccccc3CC(=O)c3sccc32)CC1 [Ketotifen, 4-(1-methyl-4-piperidyline)-4H-benzo(4,5)-cyclohepta-(1,2-b) thiophene-10-one, reference compound]
pIC50 [2]: 4.04 | Average Ear weight ±SEM (croton oil-treated ears [3]; 90 min): 37 ± 1 mg | Average Ear weight ±SEM (croton oil-treated ears [3]; 120 min): 42 ± 1 mg | Sedated animals (mice; oral dose 25 mg/kg): 5/10 | Sedated animals (mice; oral dose 50 mg/kg): 8/10 | Sedated animals (mice; oral dose 100 mg/kg): 10/10 | Frequency of sedation (dogs; DAY 1): 0/6 | Frequency of sedation (dogs; DAY 2): 5/6 | Frequency of sedation (dogs; DAY 3): 5/6 | Sedation in dogs (in words) (dogs): causes sedation in dogs | Acute toxicity (estimated LD50) (rats; intravenous): 5 to 10 mg/kg | Acute toxicity (estimated LD50) (rats; oral): <300 mg/kg

O=C1Cc2ccccc2C(=C2CCNCC2)c2ccsc21 [R-NORKETOTIFEN]
Sedated animals (mice; oral dose 100 mg/kg, 100 mg/kg): 3/10 | Sedated animals (mice; oral dose 150 mg/kg, 150 mg/kg): 3/10

OCCOCCN1CCN(C(c2ccccc2)c2ccc(Cl)cc2)CC1 (centres unmarked) [HYDROXYZINE]
Sedated animals (mice; oral dose 100 mg/kg): 9/10

CN(C)CCOC(c1ccccc1)c1ccccc1 [DIPHENHYDRAMINE]
inhibition at 10 mg/kg [1, 7]: 31% | Sedated animals (mice; oral dose 50 mg/kg): 5/10 | Sedated animals (mice; oral dose 100 mg/kg): 8/10

COc1ccc(CN(CCN(C)C)c2ccccn2)cc1 [PYRILAMINE]
Sedated animals (mice; oral dose 100 mg/kg): 8/10

CC(C)(C)c1ccc(C(O)CCCN2CCC(C(O)(c3ccccc3)c3ccccc3)CC2)cc1 (centres unmarked) [TERFENADINE]
Sedated animals (mice; oral dose 150 mg/kg): 0/10

O=C1Cc2ccccc2C(=C2CCNCC2)c2ccsc21 [S-NORKETOTIFEN]
Sedated animals (mice; oral dose 100 mg/kg, 100 mg/kg): 0/10 | Sedated animals (mice; oral dose 150 mg/kg, 150 mg/kg): 0/10

CCOC(=O)N1CCC(=C2c3ccc(Cl)cc3CCc3cccnc32)CC1 [LORATADINE]
Sedated animals (mice; oral dose 150 mg/kg): 1/10
